In patent publication US20170281651A1, “CONCOMITANT ADMINISTRATION OF GLUCOCORTICOID RECEPTOR MODULATORS AND CYP3A OR STEROIDOGENESIS INHIBITORS” (Corcept Therapeutics, Inc., priority 2017, published 2017):
Where two headings read alike, the source gives them in different places.

Assay: Example 2: effect of a 400 mg single dose of ketoconazole on PK of an 8-day regimen of 300 mg or 600 mg OD mifepristone, moderate fat breakfast
Format: in vivo, human
Details: for Cmax / AUC(0-t) / Tmax / half-life: male, human, plasma, oral; for AUC(0-t): read-out: AUCt (AUC0-24 hours, mean); for Tmax: read-out: Tmax (median); for half-life: read-out: T1/2 (mean) (converted)
Experimental: This was an open-label study in healthy male subjects. […] The 400 mg single dose of ketoconazole was given to all subjects on day 8.
METHODOLOGY: Twelve subjects were enrolled, six in Cohort 1 and 6 in Cohort 2.
Subjects were discharged on Day 11.
Subjects were discharged on Day 11. Subjects in both cohorts returned to study center on Day 13 for safety monitoring, collection of the 120-hour PK draw, and completion of the Termination Visit procedures, followed by discharge from the study. To the extent possible, any adverse events deemed study drug-related and that were ongoing at the time of discharge from the study were followed-up to resolution or until a determination was made that the unresolved event was stable.
DIAGNOSIS AND MAIN […] FOR INCLUSION: Healthy male volunteers between the ages of 18 to 45 years of age with a body mass index (BMI) ranging between 19 and 32 kg/m2 and a weight of at least 60 kg (132 lbs) were enrolled. Subjects had no clinically significant abnormal findings on the physical examination, ECG, blood pressure, heart rate, medical history, or clinical laboratory results during screening. The QTc interval at screening was less than 450 msec.
DURATION OF TREATMENT: Up to a total of 28 days, including up to 2 weeks screening, dosing on Days 1-8, safety observation, and PK sample collection through Day 13.
Additionally, comparisons were made between the PK results of cohort 1 and 2. Pharmacokinetic parameters Cmax, T1/2 and total AUC were calculated for plasma concentrations of ketoconazole following the single dose on Day 8. Descriptive statistics (count, mean, median, standard deviation, minimum, maximum, and % coefficient of variation) were provided. Ketoconazole concentrations were listed and summarized. GM means of Cmax and total AUC were compared for the single dose in this study to the combined data of reported 400 mg single doses of ketoconazole of healthy subjects from the literature.

[1] = C1 Day 8/Day 7 (300 mg/d, with vs without 400 mg Keto)
[2] = C2 Day 8/Day 7 (600 mg/d, with vs without 400 mg Keto)
[3] = Cohort 1 (300 mg OD), Day 8 with 400 mg ketoconazole relative to Day 7 without
[4] = Cohort 2 (600 mg OD), Day 8 with 400 mg ketoconazole vs Day 7
[5] = Day 7 C2/C1 (600 vs 300 mg/d, no ketoconazole)
[6] = Day 8 C2/C1 (600 vs 300 mg/d, with 400 mg Keto)
[7] = Day 8 in the presence of 400 mg ketoconazole
[8] = 300 mg/d, MIFE 300 mg/d, C1 Day 7, no ketoconazole
[9] = 600 mg/d, MIFE 600 mg/d, C2 Day 7, no ketoconazole
[10] = MIFE 300 mg/d, C1 Day 8, + 400 mg Keto single dose
[11] = MIFE 600 mg/d, C2 Day 8, + 400 mg Keto single dose

CC#C[C@]1(O)CC[C@H]2[C@@H]3CCC4=CC(=O)CCC4=C3[C@@H](c3ccc(N(C)C)cc3)C[C@@]21C [mifepristone, 11β-(4-dimethylaminophenyl)-17β-hydroxy-17α-(1-propynyl)-estra-4,9-dien-3-one]
Mean Ratio AUCt [1]: 1.25 | Mean Ratio Cmax [1]: 1.19 | Mean Ratio AUCt [2]: 1.28 | Mean Ratio Cmax [2]: 1.39 | increase in AUC0-24 [3]: 25% | increase in Cmax [3]: 20% | increase in AUC0-24 [4]: 28% | increase in Cmax [4]: 39% | Mean Ratio AUCt [5]: 1.48 | Mean Ratio Cmax [5]: 1.42 | AUC0-24 greater at 600 mg OD than at 300 mg OD (Day 7 without ketoconazole): 48% | Cmax greater at 600 mg OD than at 300 mg OD (Day 7 without ketoconazole): 42% | Mean Ratio AUCt [6]: 1.52 | Mean Ratio Cmax [6]: 1.65 | AUC0-24 greater at 600 mg OD than at 300 mg OD [7]: 52% | Cmax greater at 600 mg OD than at 300 mg OD [7]: 65% | half-life greater at 600 mg OD than at 300 mg OD [7]: 13% | Cmax [8]: 2700 ng/mL | AUC(0-t) [8]: 37700 ng·h/mL | Tmax [8]: 3 h | Cmax [9]: 3820 ng/mL | AUC(0-t) [9]: 54200 ng·h/mL | Tmax [9]: 4 h | Cmax [10]: 3240 ng/mL | AUC(0-t) [10]: 47400 ng·h/mL | half-life [10]: 84.9 h | Tmax [10]: 2.1 h | Cmax [11]: 5260 ng/mL | AUC(0-t) [11]: 69100 ng·h/mL | half-life [11]: 96.2 h | Tmax [11]: 4 h
